Assay results: PMC6882465, “Towards discovery of new leishmanicidal scaffolds able to inhibit Leishmania GSK-3” (Journal of Enzyme Inhibition and Medicinal Chemistry, 2019)

Molecular target: LdGSK-3 (Leishmania donovani, UniProt A6N857)
Experiment: Inhibition of LdGSK-3 with Kinase Glo
Assay type: biochemical
Conditions: Table S2; 10 µM
Experimental: Assessment of inhibition of LdGSK-3 with Kinase Glo^TM
The reaction was allowed to proceed for 30 min at 30 °C, then it was incubated at room temperature for another 10 min after addition of Kinase Glo reagents (Promega, Ref. V6712). ATP consumption by LdGSK-3 was measured indirectly through end-point luminescence measurement of each well in a Varioskan Flash microplate reader (Thermo).

Chain of LdGSK-3 (A6N857 entry or part of it): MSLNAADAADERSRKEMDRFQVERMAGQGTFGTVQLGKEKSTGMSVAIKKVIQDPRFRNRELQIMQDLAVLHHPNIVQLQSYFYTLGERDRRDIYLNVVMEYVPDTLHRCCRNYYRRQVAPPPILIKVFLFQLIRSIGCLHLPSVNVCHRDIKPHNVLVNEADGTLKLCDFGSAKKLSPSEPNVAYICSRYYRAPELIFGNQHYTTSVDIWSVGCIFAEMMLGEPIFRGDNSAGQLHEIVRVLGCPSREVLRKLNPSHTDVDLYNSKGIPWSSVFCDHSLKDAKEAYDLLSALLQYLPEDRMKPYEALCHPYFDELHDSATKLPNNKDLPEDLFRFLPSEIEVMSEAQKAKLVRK

`Cn1nc(C(=O)N2CCc3ccccc32)c2c1CCS(=O)(=O)C2` [Compound 30] was tested. Which “% inhibition @ 10µM (initial screening on LdGSK3)” value (from here on “% inhibition @ 10µM”) did it give?
Its value is 5.20±1.90%.

With `Br.Fc1ccc(Nc2nc(-c3ccccn3)cs2)cc1` [Compound 171] as the compound, how does the “% inhibition @ 10µM” value read?
Its value is 4.25±2.30%.

With `COc1ccc(Nc2nc(-c3ccccn3)cc(N3CCCC(O)C3)n2)cc1` (centres unmarked) [Compound 42] as the compound, how does the “% inhibition @ 10µM” value read?
The value was 5.30±2.55%.

Which “% inhibition @ 10µM” value does the source give for `Cc1cccc(Nc2nc(-c3ccccn3)cs2)n1` [Compound 147] here?
Its value is 13.40±2.35%.

For `Cc1cc(C)n(-c2nc(NC(C)C)nc(NC(C)(C)C)n2)n1` [Compound 158], which “% inhibition @ 10µM” value is on record?
The value was 7.85±3.95%.

For `O=C(Nc1nc(-c2ccccn2)cs1)N1C[C@H]2C[C@@]2(c2ccccc2)C1` [Compound 47], which “% inhibition @ 10µM” value is on record?
Its value is 1.55±0.55%.

Which “% inhibition @ 10µM” value does the source give for `COCCn1c(-c2ccccc2)cnc1NCc1ccccc1OC.O=C(O)C(=O)O` [Compound 174] here?
The value was 6.00±1.50%.

With `CN(CCOc1ccc(Cl)cc1)Cc1nc(N)nc(N(C)C)n1` [Compound 44] as the compound, how does the “% inhibition @ 10µM” value read?
Its value is -2.45±1.00%.

For `CC1CCCN(S(=O)(=O)c2ccc(C(=O)Nc3nc(-c4ccccn4)cs3)cc2)C1` (centres unmarked) [Compound 202], which “% inhibition @ 10µM” value is on record?
Its value is 6.50±2.15%.

How did the “% inhibition @ 10µM” value turn out when `Cc1cc(C)cc(NS(=O)(=O)c2cc(-c3cc(C)[nH]n3)ccc2C)c1` [Compound 51] was run?
The value was 5.95±1.25%.

With `COc1ccc(Cc2nc(-c3ncc4cccnc4c3O)n[nH]2)cc1OC` [Compound 77] as the compound, how does the “% inhibition @ 10µM” value read?
The value was 4.60±0.95%.

With `COCCn1c(-c2ccc3c(c2)OCO3)cnc1NCc1ccccc1OC.O=C(O)C(=O)O` [Compound 164] as the compound, how does the “% inhibition @ 10µM” value read?
Its value is 1.15±1.40%.

With `COc1cc(Cl)c(C)cc1NC(=O)c1ccc([N+](=O)[O-])s1` [Compound 176] as the compound, how does the “% inhibition @ 10µM” value read?
The value was 8.55±1.75%.

For `CCOc1ccccc1C(=O)Nc1nnc(-c2ccc3c(c2)OCO3)s1` [Compound 191], which “% inhibition @ 10µM” value is on record?
Its value is 12.20±2.70%.

Which “% inhibition @ 10µM” value does the source give for `COc1ccc(-c2cnc(NC(=O)c3ccc(F)cc3)n2C)cc1` [Compound 88] here?
Its value is 2.00±1.95%.

Which “% inhibition @ 10µM” value does the source give for `COCc1cc(Nc2ccc(Cl)cc2)nc(-c2ccccn2)n1` [Compound 27] here?
Its value is 6.35±5.75%.

Which “% inhibition @ 10µM” value does the source give for `Nc1nc(-c2ccccn2)nc(N)c1Cc1c(F)cccc1Cl` [Compound 190] here?
Its value is 8.15±3.40%.

With `Cc1cc(N2CCc3ccccc3C2)nc(Nc2ccc(S(=O)(=O)N3CCOCC3)cc2)n1.Cl` [Compound 73] as the compound, how does the “% inhibition @ 10µM” value read?
The value was -3.05±0.35%.

Which “% inhibition @ 10µM” value does the source give for `CCN(Cc1cccs1)C(=O)CSc1nnc(-c2ccc3c(c2)OCO3)o1` [Compound 197] here?
Its value is 10.05±1.90%.

With `Cl.NCc1ccc2c(Cl)cc(Cl)c(O)c2n1` [Compound 121] as the compound, how does the “% inhibition @ 10µM” value read?
Its value is 14.80±1.70%.

With `COc1ccc(-c2cc(C)no2)cc1S(=O)(=O)Nc1ccc(C)c(C)c1` [Compound 170] as the compound, how does the “% inhibition @ 10µM” value read?
Its value is 13.20±1.65%.

`CNc1nc(C)nc(N2CCc3cc(C(=O)NCc4ccc(-c5ccn[nH]5)cc4Cl)ccc32)n1.O=C(O)C(F)(F)F` [Compound 25] was tested. Which “% inhibition @ 10µM” value did it give?
Its value is -13.55±3.90%.

For `CC(C)Nc1nc(Cl)nc2ccccc12` [Compound 106], which “% inhibition @ 10µM” value is on record?
The value was -4.60±0.90%.

Which “% inhibition @ 10µM” value does the source give for `Cc1ccc(NC(=O)c2ccc([N+](=O)[O-])s2)cc1S(=O)(=O)N1CCOCC1` [Compound 97] here?
Its value is 6.15±1.05%.

Which “% inhibition @ 10µM” value does the source give for `Oc1c(-c2n[nH]c(Cc3ccc(F)cc3)n2)ncc2cccnc12` [Compound 102] here?
Its value is 4.05±3.10%.

With `COc1ccc2ncc(Cl)c(CCN3CC[C@H](NCc4cc5c(cn4)OCS5)[C@@H](O)C3)c2n1` [Compound 183] as the compound, how does the “% inhibition @ 10µM” value read?
The value was 14.80±2.25%.

Which “% inhibition @ 10µM” value does the source give for `CCCc1cc(C(=O)Nc2ncc(-c3cccc(Br)c3)n2C)n[nH]1` [Compound 159] here?
The value was 8.80±2.70%.

Which “% inhibition @ 10µM” value does the source give for `Cc1ccc(Nc2nc(-c3ccccn3)cc(N3CCCC(O)C3)n2)cc1` (centres unmarked) [Compound 48] here?
The value was 3.25±2.75%.

For `Nc1nc(-c2ccccn2)nc(-n2nc(-c3ccccc3)cc2N)n1.O=C(O)C(F)(F)F.O=C(O)C(F)(F)F.O=C(O)C(F)(F)F.O=C(O)C(F)(F)F.O=C(O)C(F)(F)F.O=C(O)C(F)(F)F.O=C(O)C(F)(F)F.O=C(O)C(F)(F)F` [Compound 177], which “% inhibition @ 10µM” value is on record?
Its value is 17.70±1.20%.

How did the “% inhibition @ 10µM” value turn out when `O=C(c1ccc(O)c(Cl)c1)N1CCN(c2cnccn2)CC1` [Compound 96] was run?
The value was 1.65±2.40%.

Which “% inhibition @ 10µM” value does the source give for `CN(Cc1nc2ccc(C(=O)NCC3CCCCC3)cc2[nH]1)C1CCCc2cccnc21.O=C(O)C(F)(F)F` (centres unmarked) [Compound 28] here?
Its value is 1.15±1.75%.

With `COc1ccc(NS(=O)(=O)c2ccc(S(=O)(=O)N(C)C3CCCCC3)cc2)c2ncccc12` [Compound 135] as the compound, how does the “% inhibition @ 10µM” value read?
Its value is 6.85±1.55%.

For `CC(C)(C)Nc1nc(-c2ccccn2)nc2ccccc12` [Compound 192], which “% inhibition @ 10µM” value is on record?
Its value is -2.40±2.70%.

`O=C(Nc1nc2ccccc2[nH]1)c1ccc2nc[nH]c2c1` [Compound 53] was tested. Which “% inhibition @ 10µM” value did it give?
The value was -1.60±1.50%.

Which “% inhibition @ 10µM” value does the source give for `Cc1ccccc1CNC(=O)CN(Cc1ccccn1)Cc1ccccn1.O=C(O)C(F)(F)F` [Compound 203] here?
The value was 4.90±2.30%.

`COc1ccc(S(=O)(=O)Nc2ccc(C(=O)Nc3nc(-c4ccccn4)cs3)cc2)cc1` [Compound 175] was tested. Which “% inhibition @ 10µM” value did it give?
Its value is 16.65±1.70%.

`COc1ccc([N+](=O)[O-])cc1NC(=O)c1cc(Cl)ccc1O` [Compound 210] was tested. Which “% inhibition @ 10µM” value did it give?
The value was 17.65±3.55%.

How did the “% inhibition @ 10µM” value turn out when `Br.Nc1nccc(-c2csc(Nc3ccc(Cl)cc3)n2)n1` [Compound 101] was run?
Its value is 16.40±2.40%.

For `CNc1nc(C)nc(N2CCc3cc(C(=O)NCc4ccc(-c5nccn5C)cc4Cl)ccc32)n1.O=C(O)C(F)(F)F` [Compound 83], which “% inhibition @ 10µM” value is on record?
Its value is -5.05±0.45%.

For `O=C(CCc1ccc(-c2ccccc2)o1)N1CCN(c2ccc(O)cc2)CC1` [Compound 178], which “% inhibition @ 10µM” value is on record?
Its value is 28.65±1.95%.

Which “% inhibition @ 10µM” value does the source give for `CCC(=O)N1N=C(c2ccc3c(c2)CCCC3)Sc2c1ncn2C(=O)CC` [Compound 127] here?
The value was 9.65±3.70%.

With `CCc1ccc2nc(NC(=O)c3cc(N4CCOCC4)ccn3)sc2c1` [Compound 118] as the compound, how does the “% inhibition @ 10µM” value read?
The value was 22.80±3.55%.

How did the “% inhibition @ 10µM” value turn out when `COc1ccc(OC)c2c(=O)c(Cc3ccccc3)c(C)[nH]c12` [Compound 110] was run?
Its value is -0.10±5.35%.

How did the “% inhibition @ 10µM” value turn out when `COc1cccc(Nc2cc(C)nc(-c3ccccn3)n2)c1` [Compound 32] was run?
Its value is 8.80±4.10%.

How did the “% inhibition @ 10µM” value turn out when `O=C(Nc1cccc(Cl)c1)Nc1ccc([N+](=O)[O-])cc1Cl` [Compound 89] was run?
Its value is 4.80±2.05%.

`Cc1nn(-c2nc(N)nc(-c3ccccn3)n2)c(C)c1Cc1ccccc1` [Compound 104] was tested. Which “% inhibition @ 10µM” value did it give?
The value was -0.75±1.55%.

For `O=C(c1cccc(Nc2ncc(-c3ccc4c(c3)OCO4)cn2)c1)N1CCOCC1` [Compound 189], which “% inhibition @ 10µM” value is on record?
Its value is 12.20±0.75%.

`COc1ccc(Nc2nc(-c3ccccn3)cs2)c(OC)c1` [Compound 157] was tested. Which “% inhibition @ 10µM” value did it give?
Its value is 4.50±4.45%.

With `Cc1cc(NC(=O)c2ccc([N+](=O)[O-])s2)ccc1Br` [Compound 186] as the compound, how does the “% inhibition @ 10µM” value read?
The value was 3.65±2.60%.

With `CCc1nn(-c2ncc(F)c(NC(C)C)n2)c(N)c1C1CCCCC1` [Compound 41] as the compound, how does the “% inhibition @ 10µM” value read?
Its value is 7.05±1.35%.

Which “% inhibition @ 10µM” value does the source give for `O=C(c1cccc(Nc2ncc(-c3ccc4c(c3)OCO4)cn2)c1)N1CCSC1` [Compound 140] here?
The value was 18.20±7.00%.

With `c1ccc(-c2nc(NC3CCCC3)c3ccccc3n2)nc1` [Compound 92] as the compound, how does the “% inhibition @ 10µM” value read?
Its value is -0.55±1.25%.

With `O=C1CN(C(=O)c2cccc(Nc3ncc(-c4ccc5c(c4)OCO5)cn3)c2)CCN1` [Compound 67] as the compound, how does the “% inhibition @ 10µM” value read?
Its value is 5.65±3.60%.

`CCNc1cc(-c2ccccn2)nc(Nc2ccccc2)n1` [Compound 38] was tested. Which “% inhibition @ 10µM” value did it give?
Its value is 7.10±1.40%.

How did the “% inhibition @ 10µM” value turn out when `Cc1ccc(Nc2nc(N)nc(CNC(c3nc4ccccc4[nH]3)C(C)C)n2)cc1` (centres unmarked) [Compound 79] was run?
The value was 6.40±1.30%.

How did the “% inhibition @ 10µM” value turn out when `CCOc1ccc(Nc2ccc(S(=O)(=O)N3CCN(C)CC3)cc2[N+](=O)[O-])cc1OCC` [Compound 166] was run?
Its value is 18.60±2.15%.

For `CC(c1cc(Cl)cc(Cl)c1)N(C)c1ncc2c(N)nc(N)nc2n1` (centres unmarked) [Compound 75], which “% inhibition @ 10µM” value is on record?
Its value is 10.05±1.10%.

How did the “% inhibition @ 10µM” value turn out when `CC(C)COC(=O)Nc1ccc(N2CCC(CNS(=O)(=O)c3ccccc3)CC2)c(F)c1` [Compound 46] was run?
Its value is 4.95±4.45%.

With `O=C(CCCNC(=O)c1ccc(Cl)cc1)Nc1nc(-c2ccccn2)cs1` [Compound 98] as the compound, how does the “% inhibition @ 10µM” value read?
Its value is 8.50±1.10%.

With `O=C(Nc1nc2ccccc2[nH]1)c1c(O)c2cccc3c2n(c1=O)CC3` [Compound 155] as the compound, how does the “% inhibition @ 10µM” value read?
The value was 7.50±1.00%.

With `COc1ccc(-c2cnc(C)o2)cc1S(=O)(=O)Nc1ccc(C)cc1C` [Compound 160] as the compound, how does the “% inhibition @ 10µM” value read?
Its value is 12.60±3.50%.

For `COCc1cc(Nc2ccccc2)nc(-c2ccccn2)n1` [Compound 35], which “% inhibition @ 10µM” value is on record?
Its value is 2.90±4.05%.

How did the “% inhibition @ 10µM” value turn out when `CC(C)(C)c1cc(NC2CC2)nc(-c2ccccn2)n1` [Compound 50] was run?
The value was 4.70±2.30%.

How did the “% inhibition @ 10µM” value turn out when `Cc1nc(N2CC(C)OC(C)C2)sc1C(=O)Nc1ccc2c(c1)OCO2` (centres unmarked) [Compound 209] was run?
The value was 16.10±4.80%.

How did the “% inhibition @ 10µM” value turn out when `CC(CCc1ccccc1)NC(=O)CN(Cc1ccccn1)Cc1ccccn1.O=C(O)C(F)(F)F` (centres unmarked) [Compound 134] was run?
The value was 5.25±1.70%.

With `COc1ccc(C(=O)[C@H]2C[C@@H]2CN(Cc2ccccn2)Cc2ccccn2)cc1` [Compound 107] as the compound, how does the “% inhibition @ 10µM” value read?
The value was -4.05±3.20%.

Which “% inhibition @ 10µM” value does the source give for `COc1cccc(CN(C)Cc2nc(N)c3c(C)c(C)sc3n2)c1` [Compound 81] here?
Its value is 6.35±3.00%.

How did the “% inhibition @ 10µM” value turn out when `Cc1cc(-c2cccc3ccccc23)nc2nc(N)nc(N)c12` [Compound 57] was run?
The value was 6.10±3.15%.

Which “% inhibition @ 10µM” value does the source give for `COCc1cc(Nc2cccc(Cl)c2)nc(-c2ccccn2)n1` [Compound 39] here?
The value was 9.00±3.05%.

Which “% inhibition @ 10µM” value does the source give for `O=C(CN1CCC2(O)CCCCC2C1c1ccc2c(c1)OCO2)Nc1ccc(Cl)cc1Cl` (centres unmarked) [Compound 143] here?
Its value is 2.25±0.35%.

With `Cc1nnc(-c2nc(NCc3ccc(Cl)cc3)c3cccnc3c2O)[nH]1` [Compound 31] as the compound, how does the “% inhibition @ 10µM” value read?
The value was 8.20±1.70%.
